Assay results published in patent publication US20120324604A1, “PESTICIDAL MIXTURES CONTAINING ISOXAZOLINE DERIVATIVES AND A FUNGICIDE” (priority 2010, published 2012).

Columns and labels:
Format in all cases: cell-based
Fusarium culmorum = Fusarium culmorum (Root Rot) growth inhibition, microtiter plate, photometric; settings: single compound, 48 hrs, 24° C.
Procedure: Fusarium culmorum (Root Rot):
(§1) Conidia of the fungus from cryogenic storage were directly mixed into nutrient broth (potato dextrose broth). After placing a (DMSO) solution of the test compounds into a microtiter plate (96-well format) the nutrient broth containing the fungal spores was added.

Septoria tritici = Septoria tritici (Leaf Blotch) growth inhibition, microtiter plate, photometric; settings: alone
Procedure: Septoria tritici (Leaf Blotch):
as §1

[1] = tested on: Mycosphaerella arachidis (syn. Cercospora arachidicola); experiment: Mycosphaerella arachidis (Brown Leaf Spot of Groundnut) growth inhibition, microtiter plate, photometric; settings: alone
Procedure: Mycosphaerella arachidis (syn. Cercospora arachidicola), Brown Leaf Spot of Groundnut (Peanut):
as §1

Pythium ultimum = Pythium ultimum (Damping Off) growth inhibition, microtiter plate, photometric
Procedure: Pythium ultimum (Damping Off):
Mycelial fragments of the fungus, prepared from a fresh liquid culture, were directly mixed into nutrient broth (potato dextrose broth). After placing a (DMSO) solution of the test compounds into a microtiter plate (96-well format) the nutrient broth containing the fungal spores was added.

[2] = tested on: Glomerella lagenarium (syn. Colletotrichum lagenarium); experiment: Glomerella lagenarium (Anthracnose of Cucurbits) growth inhibition, microtiter plate, photometric; settings: alone
Procedure: Glomerella lagenarium (syn. Colletotrichum lagenarium), Anthracnose of Cucurbits:
as §1

Botrvtis cinerea = Botrvtis cinerea (Gray Mould) growth inhibition, microtiter plate, photometric; settings: alone
Procedure: Botrvtis cinerea (Gray Mould):
as §1

Rhizoctonia solani = Rhizoctonia solani (Foot Rot, Damping-Off) growth inhibition, microtiter plate, photometric; settings: applied alone
Procedure: Rhizoctonia solani (Foot Rot, Damping-Off):
Mycelial fragments of the fungus from cryogenic storage were directly mixed into nutrient broth (potato dextrose broth). After placing a (DMSO) solution of the test compounds into a microtiter plate (96-well format) the nutrient broth containing the fungal spores was added.

Measured: AVERAGE DEAD IN %

Cc1cc(C2=NOC(c3cc(Cl)cc(Cl)c3)(C(F)(F)F)C2)ccc1C(=O)NC1CS(=O)(=O)C1 (racemic) [A8]
0%: Fusarium culmorum; 2.5 PPM AI | Fusarium culmorum; 5 PPM AI | Fusarium culmorum; 10 PPM AI | Fusarium culmorum; 20 PPM AI | Septoria tritici; 0.0390625 ppm AI | Septoria tritici; 0.078125 ppm AI | Septoria tritici; 0.15625 ppm AI | Septoria tritici; 0.3125 ppm AI | Septoria tritici; 0.625 ppm AI | Septoria tritici; 1.25 ppm AI | Septoria tritici; 2.5 ppm AI | Septoria tritici; 5 ppm AI | Septoria tritici; 10 ppm AI | Septoria tritici; 20 ppm AI | [1]; 0.0390625 PPM AI | [1]; 0.078125 PPM AI | [1]; 0.15625 PPM AI | [1]; 0.3125 PPM AI | [1]; 0.625 PPM AI | [1]; 1.25 PPM AI | [1]; 2.5 PPM AI | [1]; 5 PPM AI | [1]; 10 PPM AI | [1]; 20 PPM AI | Pythium ultimum; single compound at 0.078125 ppm AI | Pythium ultimum; single compound at 0.15625 ppm AI | Pythium ultimum; single compound at 0.3125 ppm AI | Pythium ultimum; single compound at 0.625 ppm AI | Pythium ultimum; single compound at 1.25 ppm AI | Pythium ultimum; single compound at 2.5 ppm AI | Pythium ultimum; single compound at 5 ppm AI | Pythium ultimum; single compound at 10 ppm AI | Pythium ultimum; single compound at 20 ppm AI | [2]; 0.078125 ppm AI | [2]; 0.15625 ppm AI | [2]; 0.3125 ppm AI | [2]; 0.625 ppm AI | [2]; 1.25 ppm AI | [2]; 2.5 ppm AI | [2]; 5 ppm AI | [2]; 10 ppm AI | [2]; 20 ppm AI | Botrvtis cinerea; 0.078125 ppm AI | Botrvtis cinerea; 0.15625 ppm AI | Botrvtis cinerea; 0.3125 ppm AI | Botrvtis cinerea; 0.625 ppm AI | Botrvtis cinerea; 1.25 ppm AI | Botrvtis cinerea; 2.5 ppm AI | Botrvtis cinerea; 5 ppm AI | Botrvtis cinerea; 10 ppm AI | Botrvtis cinerea; 20 ppm AI | Rhizoctonia solani; 0.0390625 ppm AI | Rhizoctonia solani; 0.078125 ppm AI | Rhizoctonia solani; 0.15625 ppm AI | Rhizoctonia solani; 0.3125 ppm AI | Rhizoctonia solani; 0.625 ppm AI | Rhizoctonia solani; 1.25 ppm AI | Rhizoctonia solani; 2.5 ppm AI | Rhizoctonia solani; 5 ppm AI | Rhizoctonia solani; 10 ppm AI | Rhizoctonia solani; 20 ppm AI
